These results are taken from patent US20240197672A1, “COMPOSITION FOR INHIBITING SKIN PIGMENTATION THROUGH AUTOPHAGY ACTIVITY CONTAINING PROCYANIDIN A2 AND QUERCETIN, AS ACTIVE INGREDIENTS” (KYUNGPOOK NATIONAL UNIVERSITY INDUSTRY-ACADEMIC COOPERATION …, priority 2022, published 2024).

Series [1] relates to mushroom tyrosinase. Briefly: Tyrosinase inhibitory activity (L-DOPA, DOPA chrome at 475 nm). Type of series: biochemical. The following applies: for tyrosinase inhibitory activity: Example 1, FIG. 1; for Inhibitory Activity (%): Example 2, Table 2.
Experimental: In the reaction mixture, 0.5 ml of 0.175 M sodium phosphate buffer (pH 6.8), 0.2 ml of a substrate solution containing 10 mM L-DOPA, and 0.1 ml of the sample solution were mixed, followed by the addition of 0.2 ml of mushroom tyrosinase (110 unit/ml). The reaction was carried out for 2 minutes at 25° C., and the DOPA chrome produced in the reaction mixture was measured at 475 nm. Tyrosinase inhibitory activity was expressed as the percentage reduction in absorbance compared to the control group without sample solution.
Series [2] relates to MNT-1 cells. Briefly: Melanin production in MNT-1 cells (absorbance 490 nm). Type of series: cell-based, human. The note with it: MNT-1, 72 hours. As for the experimental part:
The melanin inhibitory effects of each substance were confirmed through an analysis of melanin production following treatment with procyanidin A2, quercetin, and their combination. Specifically, MNT-1 cells (human-derived melanoma skin cells) were treated for 72 hours with procyanidin A2, quercetin, and the combination at the maximum concentration without cytotoxicity according to Table 5. The negative control group was untreated, and arbutin, a tyrosinase inhibitor, was used as the positive control. Afterward, the media was removed, the cell bodies were dissolved with 1 N NaOH, heated at 95° C. for 5 minutes, and the absorbance was measured at 490 nm using a microplate reader (Molecular Devices, Sunnyvale, CA, USA).

Series [3] deals with MNT-1 cells. Briefly: Cell viability / cytotoxicity, MTT assay. Type of series: cell-based, human. The note with it: MNT-1, 72 hours. As for the experimental part:
To examine the cell toxicity of procyanidin A2, quercetin, and their combination, a cell viability analysis was conducted. Specifically, cell survival and cytotoxicity were measured using the 3-(4,5-dimethylthiazol-2-yl)-2,5-diphenyltetrazoliumbromide (MTT) Assay. MNT-1 cells were seeded in a 96 well plate at 1×10^5 cells/well and cultured for 24 hours in a 37° C., 5% CO2 incubator. After that, each compound was treated according to Table 4 and cultured for 72 hours. Then, MTT solution at a final concentration of 0.5 mg/ml was added and reacted for 4 hours at 37° C. The media containing MTT solution was removed, and 100 μl of DMSO was treated in each well to dissolve the formazan precipitate formed in reaction with the living cells. Absorbance was measured at 550 nm using an ELISA reader (CLARIOstar Plus, BMG LABTECH, Germany).

Series [4] concerns tyrosinase, TRP-1, TRP-2, MITF in MNT-1 cells. Description: Melanin synthesis-related protein expression (western blot). The following applies: MNT-1, FIG. 5. Format: cell-based, human. As for the experimental part:
(§1) Specifically, after treating with procyanidin A2, quercetin, and the combination, MNT-1 cells were washed twice in ice-cold PBS and lysed in ice-cold RIPA buffer (Sigma-Aldrich). Protein concentration was measured using a Bicinchoninic acid (BCA) protein assay kit (Pierce, Rockford, IL, USA), and 35 μg of protein was separated using sodium dodecyl sulfate-polyacrylamide gel electrophoresis (10%) and transferred to a nitrocellulose membrane (Whatman, Dassel, Germany). The membrane was blocked in 5% non-fat milk in TBST buffer (1:5000) and then treated with primary (1:1000) and secondary antibodies (Table 6). Protein bands were detected using SuperSignal West Femto maximum sensitivity substrate (Thermo Fisher Scientific, Rockford, IL, USA) and quantified using Image Lab™ software (version 5.2.1).

Series [5] has as its system LC3-II, ATG5, Beclin-1, p62, LC3-I in MNT-1 cells. Briefly: Autophagy activity-related protein expression (western blot). Format: cell-based, human. The following applies: for expression levels of LC3-II, ATG5, and Beclin-1: MNT-1, FIG. 6. On the procedure:
as §1
LC3-II, ATG5, and Beclin-1 are involved in the formation of autophagosomes and activate autophagy. In contrast, p62 and LC3-I, which show characteristics of being decomposed during autophagosome formation, decrease when autophagy activate. To verify the autophagy activity of procyanidin A2, quercetin, and their combination, the expression levels of autophagy-activity-related proteins were analyzed. The specific method for this experiment, except for using Table 8 for antibodies, was conducted in the same manner as the method in Example 5 for the analysis of melanin synthesis-related protein expression.
(In western blotting, separated proteins are transferred to a membrane and probed.)

[6] abbreviates: procyanidin A2 only, 50 μM, MNT-1.

The compound `OC[C@H]1O[C@@H](Oc2ccc(O)cc2)[C@H](O)[C@@H](O)[C@@H]1O` [arbutin, reference compound] returned a tyrosinase inhibition in series [1] (300 μM, positive control, Example 1) of 58.79%. For the same compound, the “melanin production reduced by (NT set to 100%)” value in series [2] (arbutin 1 mM) was “about 57.1%”.

In the case of `O=c1c(O)c(-c2ccc(O)c(O)c2)oc2cc(O)cc(O)c12` [quercetin, 2-(3,4-dihydroxyphenyl)-3,5,7-trihydroxy-4H-chromen-4-one], the cytotoxicity entry in series [3] (approximately 25 μM and below) is “no cytotoxicity”. Besides, the tyrosinase inhibitory activity in series [1] (2.5 μM) worked out at 17.65%; in series [1] (5 μM) it was 32.08%; in series [1] (10 μM) it was 49.44%. Besides, the “Inhibitory Activity (%)” value in series [1] (2.5 μM) is given as 17.05%; in series [1] (5 μM), 31.61%. The “protein expression of tyrosinase, TRP-1, and TRP-2” value in series [4] (20 μM) is given as “reduction”. Moreover, the “expression levels of LC3-II, ATG5, and Beclin-1” value in series [5] (20 μM) is on record as “little to no significant change or only slight increases”. Besides, in series [2] (20 μM), the “melanin production reduced to (NT set to 100%)” value is reported as 64.5%.

Regarding `Oc1cc(O)c2c(c1)O[C@@]1(c3ccc(O)c(O)c3)Oc3cc(O)c4c(c3[C@@H]2[C@H]1O)O[C@H](c1ccc(O)c(O)c1)[C@H](O)C4` [procyanidin A2], the cytotoxicity result in series [3] (100 μM) is recorded as “toxicity”; in series [3] (concentrations below 50 μM), “no cytotoxicity”. Moreover, the tyrosinase inhibitory activity is reported as 29.82% in series [1] (2.5 μM), 51.12% in series [1] (5 μM) and 68.81% in series [1] (10 μM). Moreover, the “Inhibitory Activity (%)” value in series [1] (2.5 μM) is on record as 30.27%; in series [1] (5 μM), 49.04%. In series [4] (50 μM), the “protein expression of tyrosinase, TRP-1, and TRP-2” value is “reduction”. In addition, the “expression levels of LC3-II, ATG5, and Beclin-1” value in series [5] (50 μM) was “little to no significant change or only slight increases”. Moreover, in series [5] (setting [6]), the “ATG5 and Beclin-1 expression” value is recorded as “slight increase”. Moreover, the P62 expression entry in series [5] (setting [6]) was “slight increase”. Also, the “ratio of LC3-II to LC3-I” value in series [5] (setting [6]) is listed as “remained similar to the control group”. In addition, the “melanin production reduced to (NT set to 100%)” value in series [2] (50 μM) stood at 72.3%.
